Patent US20150044305A1, “[…] NITRIC OXIDE FOR TREATING RESPIRATORY DISEASES” (Advanced Inhalation Therapies (AIT) Ltd., priority 2012, published 2015)
Like-named read-outs stand apart in the source and are kept apart here.

Tests used:
[1] = system: E. Coli; conditions: 200 ppm gNO, saline suspension; cited from earlier work
[2] = Phase I safety study: serum nitrite/nitrate by Griess reagent; assay type: in vivo, human; conditions: during the trial, 160 ppm gNO
Description: (§1) After obtaining informed consent, treatment was initiated within 5 days of enrollment. Subjects were housed in a hospital ward and received 160 ppm gNO for 30 minutes every four hours (Q4 h), five times a day, for five consecutive days by inhalation. Subjects returned for follow-up evaluations 3, 7 and 21 days after the final gNO administration. Subject safety was determined by monitoring vital signs, methemoglobin levels, lung function, blood chemistry, hematology, prothrombin time, inflammatory cytokine/chemokines levels and endothelial activation.
(§2) These parameters were measured continuously during every gNO administration course and for 3.5 hours after the first treatment of the day. Daily serum samples were collected and frozen at −80° C. and the serum […] level was measured using the Griess reagent.

[3] = system: human respiratory syncytial virus (rgRSV30); assay: RSV plaque assay after 30 minutes exposure to 160 ppm gNO; assay type: cell-based; conditions: single exposure of 30 minutes to 160 ppm gNO; for reduction of virus viability (factor): vs ambient air
Description: The efficacy of treating viral infection by respiratory syncytial virus by the methods presented herein was tested by exposure for 30 minutes of human respiratory syncytial virus (rgRSV30) to a gas mixture containing 160 ppm nitric oxide, using standard plaque assay as described hereinabove.
FIGS. 3A-D present the data obtained in the experiment using tissue culture samples harboring human rgRSV30, coupled to a green fluorescent protein, wherein the control experiment the samples were exposed to a ambient air (data not shown), and the tested samples having a starting viral level of 2000 PFU (FIG. 3A), 1000 PFU (FIG. 3B) and 500 PFU (FIG. 3C), were exposed to 160 ppm gNO for 30 minutes, whereas FIG. 3D presents a comparative bar plot comparing the control to test results.

[4] = system: methemoglobin; assay: Phase I safety study: methemoglobin (SpMet) by pulse oximeter; assay type: in vivo, human
Description: as §1
(§3) The levels of gNO, NO2, O2 and methemoglobin were monitored during the administration of gNO. The target gas mixture was 160 ppm gNO with a nitrogen dioxide (NO2) level of less than 5 ppm and an oxygen (O2) level ranging from 21% to 25%. Inspiratory NO, NO2 and O2 levels were continuously monitored by sampling from the mouthpiece sample port located about 6 millimeters from the mouth of the subject with an AeroNOx (Pulmonox, AB, Canada) NO, NO2 and O2 electrochemical analyzer. Delivery safety was determined by the number of occasions that NO2 exceeded 5 ppm, gNO exceeding 10% variation and O2 dropping below 20% during gNO administration. A commercially available noninvasive pulse oximeter (Rad 57, Masimo Corporation, USA) was used to measure saturation levels at the periphery of methemoglobin (SpMet).
as §2

[5] = system: methemoglobin; conditions: healthy humans, cited from earlier work
[6] = gNO concentrations below 200 ppm, 6 hours/day for 28 days, rats; cited from earlier work
[7] = Phase I safety study: oxygen saturation (SpO2) by pulse oximeter; assay type: in vivo, human
Description: as §1
Abbreviated physical examination by a registered nurse was carried out each day prior to initiation of treatments on days 1-5. Oxygenation was measured with a pulse oximeter (Rad 57, Masimo Corporation, USA) which was used according to manufacturer's guidelines to measure functional oxygen saturation of arterial hemoglobin (SpO2) and heart rate. These parameters were measured continuously during every gNO administration and for 3.5 hours after the first treatment of the day.

[8] = Phase I safety study: inspiratory NO2 level during gNO administration; assay type: in vivo, human; conditions: inspired gas, 160 ppm gNO
Description: as §3

[9] = intermittent gNO inhalation; cited from earlier work
[10] = system: highly pathogenic Avian Influenza H7N3; conditions: cited from earlier work
[11] = system: five planktonic species of methicillin resistant S. aureous (MRSA); conditions: exposure to 1,600 ppm hours of gNO; cited from earlier work
[12] = system: Pseudomonas aeruginosa; conditions: inhaled, intermittent 30 minute exposures, 160 ppm gNO; cited from earlier work
[13] = system: Mycobacterium; conditions: 200 ppm gNO, saline suspension; cited from earlier work
[14] = system: vascular endothelial activation factors Ang-1 and Ang-2; assay: Phase I safety study: plasma angiopoietin Ang-1 and Ang-2; assay type: in vivo, human; conditions: vs baseline
Description: as §1
Hematological assessment included a complete blood count and differentials (hemoglobin, hematocrit, red blood cell count, white blood cell count, white blood cell differential, and platelet count) were obtained in order to monitor blood chemistry, hematology and inflammation measurements. The blood chemistry profile included serum creatinine, and liver function tests such as aspartate aminotransferase (AST) serum glutamic oxaloacetic transaminase (SGOT), alkaline phosphatase, and gamma-glutamyl transferase (GGT). The effect of gNO on coagulation was determined by the prothrombin time (PT) and its derived measures of prothrombin ratio (PR) and international normalized ratio (INR). Heparinized plasma was collected at baseline and on days 1, 2, 4, and 5 of gNO administration, and on follow-up days 3, 7 and 21 and frozen at −80° C. Plasma cytokine levels were assessed using the human inflammation cytokine bead array kit (BD Bioscience, Canada). Plasma levels of angiopoietin Ang-1 and Ang-2 were determined by ELISA (R&D Systems, USA).

[15] = system: Enterobacter sp.; conditions: 200 ppm gNO, saline suspension; cited from earlier work
[16] = cited from earlier work
[17] = system: all microorganisms tested; conditions: 200 ppm gNO, cited from earlier work
[18] = 160 ppm gNO 30 minutes, five times a day, five days
[19] = saline suspension, average over the bacteria of Table 1

[N]=O [gNO, nitric oxide]
LD100 [1]: 5 h | Latent Period [1]: 3 h | −2.5 Log10 (hours) [1]: 4.2 hours | serum nitrite/nitrate levels vs baseline [2]: no significant differences | viral viability ([3]; starting 500 PFU): substantially nullified | reduction of virus viability (factor) ([3]; starting 1000 PFU): ~10 | reduction of virus viability (factor) ([3]; starting 2000 PFU): ~10 | residual increase in SpMet at follow-up ([4]; 3, 7 and 21 days after the final exposure to gNO): did not show any residual increase | all 930 recorded methemoglobin percent levels (SpMet) [4, 18]: < 5% | SpMet increase between pretreatment and post treatment ([4]; 160 ppm gNO, p<0.001): about 1% | time for SpMet to return to baseline ([4]; after 160 ppm gNO administration): 3.5 h | accumulative or lingering effect on SpMet ([4]; after five daily treatments for five consecutive days): no accumulative or lingering effect | highest SpMet ([4]; at the end of the 160 ppm gNO treatment): 2.5% | average increase of SpMet ([4]; single 30 minutes treatment course, 160 ppm gNO, ten individuals): 0.9% | MetHb level ([5]; inhalation of gNO at 128 ppm for 3 hours): > 5% | MetHb level ([5]; inhalation of gNO at 512 ppm for 55 minutes): > 5% | mortality [6]: No deaths occurred | lowest observed SpO2 [7, 18]: 93% | incidences of hypoxemia (less than 85% SpO2) ([7]; during or after gNO administration): No sudden incidences of hypoxemia | SpO2 levels over time between pretreatment and post treatment ([7]; not significant statistically nor clinically): decreased slightly | highest NO2 level recorded during the treatments [8]: 2.8 ppm | clinical symptoms of bovine respiratory disease [9]: shown to decrease the clinical symptoms | viral replication and infectivity [10]: reduced not only viral replication but also their infectivity | population of planktonic MRSA strains [11]: A reduction in the population of all five MRSA planktonic strains was observed | pulmonary bioburden and leukocyte infiltration [12]: effective to reduce the pulmonary bioburden and leukocyte infiltration | LD100 [13]: 10 h | Latent Period [13]: 7 h | −2.5 Log10 (hours) [13]: 9.2 hours | Ang-1 plasma level [14]: unaffected | Ang-2/Ang-1 ratio [14]: not affected | Ang-2 plasma level [14]: not affected | LD100 [15]: 6 h | Latent Period [15]: 4 h | −2.5 Log10 (hours) [15]: 5.3 hours | mortality ([16]; 300 ppm gNO, groups of 10 rats, first 1-2 days): Six of the animals treated with 300 ppm gNO died | mortality ([16]; 400 ppm gNO, 6 continuous hours per day, rats): all of the animals died on the first day | mortality ([16]; 500 ppm gNO, 6 continuous hours per day, rats): all of the animals died on the first day | MetHb level ([16]; 500 ppm gNO, rats): 67 percents | reduction in CFU/mL ([17]; every bacteria challenged): ≥ 3 log10 CFU/mL | LD100 (hours), Average [17, 19]: 4.77 h | Latent Period (hours), Average [17, 19]: 2.77 h | −2.5 Log10 (hours), Average [17, 19]: 3.82 hours
